Experimental data taken from patent US8680155B2, “Synthesis and antitumor activity of novel bis(benzylidene-benzenamine)disulfides” (Kaohsiung Medical University, priority 2011, dated 2014).

Key:
A2058 = assay: MTT survival, A2058 melanoma; assay type: cell-based, human; details: A2058, 10 μM
Description: (§1) Next, in vitro cytotoxicity of the multiple compounds in various cell lines was evaluated, which also was performed using MTT colorimetric assay. […] Comparing breast cancer cells MCF-7 with other cancer cells, most selected compounds had higher inhibition activity to MCF-7 cells. Therefore, breast cancer cells MCF-7 were chosen to be the research target in the following experiments.

A375 = assay: MTT survival, A375 melanoma; assay type: cell-based, human; details: A375, 10 μM
Description: as §1

293T = assay: MTT survival, 293T kidney cancer; assay type: cell-based, human
Description: as §1

H1335 = assay: MTT survival, H1335 lung cancer; assay type: cell-based, human; details: H1335, 10 μM
Description: as §1

A549 = assay: MTT survival, A549 lung cancer; assay type: cell-based, human; details: A549, 10 μM
Description: as §1

MCF-7 = assay: MTT survival, MCF-7 breast cancer; assay type: cell-based, human; details: MCF-7, 10 μM
Description: as §1

Cal-27 = assay: MTT survival, Cal-27 oral cancer; assay type: cell-based, human; details: Cal-27, 10 μM
Description: as §1

Ca-922 = assay: MTT survival, Ca-922 oral cancer; assay type: cell-based, human; details: Ca-922, 10 μM
Description: as §1

[1] = tested on: breast cancer cells MCF-7; assay: Cell cycle analysis by flow cytometry (PI staining); assay type: cell-based, human; details: MCF-7, 5 μM, 24 hours; control 11.54%
Description: This experiment was performed by treating breast cancer cells MCF-7 with compounds, and then cell cycle was analyzed using flow cytometry known by the skilled person in the art. Firstly, breast cancer cells MCF-7 were treated with the prepared compounds (5 μM) for 24 hours and stained with propidium iodide (PI). Approximately 10000 cells from each sample were analyzed with FACScan flow cytometer and software. […] The sub-G1 DNA Peaks for compounds 4, 5, 7, 18, 21, 23 and 24 were 20.64%, 17.92%, 26.22%, 11.95%, 19.85%, 4.35% and 33.89% respectively (data not shown), while the sub-G1 DNA peak for control (without any drug treatment) was 11.54%.

mouse melanoma cells B16 = assay: MTT growth inhibition on murine melanoma cells (FIG. 1); assay type: cell-based; details: 10 μM, 48 hours
Description: In addition, for recognizing whether the prepared disulfides had cytotoxicity to normal cells and murine cells, human dermal fibroblasts and mouse melanoma cells B16 were selected as the models using MTT colorimetric assay. First, fibroblasts or B16 cells were seeded in 96-well culture plate at 2500 cells per well and cultivated overnight until cell attachment. Each compound (10 μM) was added into the culture media in triplicate and incubated for 48 hours, and finally MTT reagent was added into each well to detect absorbance.
Please refer to FIG. 1, which illustrates the growth inhibition of various compounds to human dermal fibroblast and B16 cells.

[2] = tested on: phosphorylated p38 protein; assay: Phosphorylated p38 expression by immunoblotting in MCF-7 cells; assay type: cell-based, human; details: MCF-7, 24-hour treatment, different concentrations
Description: P38 protein in p38 mitogen-activated protein kinase (MAPK) pathway was chosen to be the index of apoptosis in this experiment, and phosphorylated p38 expression was evaluated using immunoblotting assay known by the skilled person in the art. Cellular protein was harvested after the 24-hour treatment of compound 24 on MCF-7 cells, and then resolved with sodium dodecyl sulfate (SDS)-polyacrylamide gel electrophoresis and developed using immunoblotting. […] In combination with aforementioned experimental results, compound 24 and other compounds could induce cancer cell apoptosis.

melanoma cells B16 tumor = assay: Antitumor activity in B16 tumor-bearing mice; assay type: in vivo; details: injection into sole of feet, B16 in C57BL/6 mice
Description: Firstly, a total of 5×10^6 melanoma cells B16 were inoculated into female C57BL/6 mice (about 19˜21 grams/7 to 9 weeks). […] When tumor reached about 4 mm×4 mm in diameter, mice were separated into groups. Each group had four mice in each experiment. Tumor volume were majored by calipers each two days after compound injection into each sole of feet of mice or without compound injection (control), and tumor volume was calculated by following formula: Tumor volume=[…] (Equation I)

HOP-92 = assay: MTT cytotoxicity, HOP-92 non-small cell lung cancer; assay type: cell-based; details: HOP-92, MTT
Description: (§2) For confirming the cytotoxicity of bis(benzylidene-benzenamine)disulfides of the invention on various cancer cells, the well known MTT (3-(4,5-dimethylthiazol-2-yl)-2,5-diphenyltetrazolium bromide) colorimetric assay in this art was performed, and the method was not detailedly described herein. Please refer to Table 3, compound 12 was selected from compounds 1 to 24 to proceed cytotoxicity experiment.

NCI-H226 = assay: MTT cytotoxicity, NCI-H226 non-small cell lung cancer; assay type: cell-based
Description: as §2

HCT-15 = assay: MTT cytotoxicity, HCT-15 colon cancer; assay type: cell-based; details: HCT-15, MTT
Description: as §2

SNB-75 = assay: MTT cytotoxicity, SNB-75 central nervous system cancer; assay type: cell-based; details: SNB-75, MTT
Description: as §2

LOX MVI = assay: MTT cytotoxicity, LOX MVI melanoma; assay type: cell-based
Description: as §2

MALME-3M = assay: MTT cytotoxicity, MALME-3M melanoma; assay type: cell-based
Description: as §2

SK-MEL-5 = assay: MTT cytotoxicity, SK-MEL-5 melanoma; assay type: cell-based; details: SK-MEL-5, MTT
Description: as §2

IGROV1 = assay: MTT cytotoxicity, IGROV1 ovarian cancer; assay type: cell-based
Description: as §2

T-47D = assay: MTT cytotoxicity, T-47D breast cancer; assay type: cell-based
Description: as §2

[3] = tested on: selected cancer cell lines; assay: MTT cytotoxicity, mean over cancer cell lines; assay type: cell-based; details: read-out: mean 50% growth inhibition (GI50)
Description: as §2

Compound | Survival (% control) of compound (10 μM) (A2058) [% control] | Survival (% control) of compound (10 μM) (A375) [% control] | Survival (% control) of compound (10 μM) (293T) [% control] | Survival (% control) of compound (10 μM) (H1335) [% control] | Survival (% control) of compound (10 μM) (A549) [% control] | Survival (% control) of compound (10 μM) (MCF-7) [% control] | Survival (% control) of compound (10 μM) (Cal-27) [% control] | Survival (% control) of compound (10 μM) (Ca-922) [% control] | sub-G1 DNA peak [1] [%] | also measured
O=[N+]([O-])c1ccc(C(=Nc2ccc(C(F)(F)F)cc2)SSC(=Nc2ccc(C(F)(F)F)cc2)c2ccc([N+](=O)[O-])cc2)cc1 [Compound 4] | 92.6 ± 0.05 | 84.6 ± 0.08 | 64.6 ± 0.28 | 66.0 ± 0.14 | 65.4 ± 0.11 | 59.6 ± 0.28 | 102.5 ± 0.06 | 80.1 ± 0.08 | 20.64 | –
Cc1c(N=C(SSC(=Nc2cccc([N+](=O)[O-])c2C)c2ccc(F)cc2)c2ccc(F)cc2)cccc1[N+](=O)[O-] [Compound 18] | 95.9 ± 0.02 | 91.5 ± 0.04 | 71.1 ± 0.23 | 70.0 ± 0.13 | 75.5 ± 0.08 | 33.1 ± 0.47 | 94.9 ± 0.07 | 79.4 ± 0.09 | 11.95 | –
O=[N+]([O-])c1cc(N=C(SSC(=Nc2ccc(F)c([N+](=O)[O-])c2)c2ccc(C(F)(F)F)cc2)c2ccc(C(F)(F)F)cc2)ccc1F [Compound 23] | 93.2 ± 0.04 | 94.3 ± 0.03 | 57.8 ± 0.33 | 80.2 ± 0.08 | 64.4 ± 0.12 | 57.1 ± 0.30 | 92.4 ± 0.16 | 65.8 ± 0.14 | 4.35 | growth inhibition / apoptosis in murine melanoma B16 (mouse melanoma cells B16): significantly made
Cc1c(N=C(SSC(=Nc2cccc([N+](=O)[O-])c2C)c2ccc(C(F)(F)F)cc2)c2ccc(C(F)(F)F)cc2)cccc1[N+](=O)[O-] [Compound 24] | 34.9 ± 0.42 | 59.5 ± 0.22 | 24.2 ± 0.59 | 26.0 ± 0.32 | 53.4 ± 0.15 | 8.6 ± 0.64 | 73.5 ± 0.22 | 45.5 ± 0.22 | 33.89 | growth inhibition / apoptosis in murine melanoma B16 (mouse melanoma cells B16): significantly made; phosphorylation of p38 protein [2]: dependent on the concentration; tumor volume over time (melanoma cells B16 tumor; 2 mg/kg): not markedly increased; tumor volume compared to the untreated group (melanoma cells B16 tumor; 4 mg/kg): significantly suppressed
Cc1cc(C(=Nc2ccccc2)SSC(=Nc2ccccc2)c2ccc([N+](=O)[O-])c(C)c2)ccc1[N+](=O)[O-] [Compound 1] | – | 90.3 ± 0.05 | 76.5 ± 0.19 | 69.8 ± 0.13 | 71.5 ± 0.09 | – | 100.9 ± 0.09 | 80.8 ± 0.08 | – | –
Cc1ccc(N=C(SSC(=Nc2ccc(C)c([N+](=O)[O-])c2)c2ccc(C(F)(F)F)cc2)c2ccc(C(F)(F)F)cc2)cc1[N+](=O)[O-] [Compound 17] | – | 103.2 ± 0.02 | 75.3 ± 0.21 | 81.4 ± 0.08 | 76.9 ± 0.07 | – | 107.1 ± 0.08 | 82.1 ± 0.07 | – | –
Cc1cc(C(=Nc2ccc(Cl)cc2)SSC(=Nc2ccc(Cl)cc2)c2ccc([N+](=O)[O-])c(C)c2)ccc1[N+](=O)[O-] [Compound 7] | 99.6 ± 0.02 | 92.4 ± 0.04 | 71.2 ± 0.23 | 67.4 ± 0.13 | 78.7 ± 0.07 | 51.7 ± 0.34 | 101.7 ± 0.09 | 96.2 ± 0.02 | 26.22 | –
O=[N+]([O-])c1ccc(C(=Nc2ccc(Cl)cc2)SSC(=Nc2ccc(Cl)cc2)c2ccc([N+](=O)[O-])cc2)cc1 [Compound 5] | 97.5 ± 0.02 | 79.4 ± 0.11 | 70.9 ± 0.24 | 75.8 ± 0.10 | 82.4 ± 0.06 | 54.3 ± 0.32 | 100.1 ± 0.07 | 79.4 ± 0.08 | 17.92 | –
Cc1cc([N+](=O)[O-])ccc1N=C(SSC(=Nc1ccc([N+](=O)[O-])cc1C)c1ccc(C(F)(F)F)cc1)c1ccc(C(F)(F)F)cc1 [Compound 12] | – | – | – | – | – | – | – | – | – | GI50 (HOP-92): 175 nM; GI50 (NCI-H226): 427 nM; GI50 (HCT-15): 388 nM; GI50 (SNB-75): 141 nM; GI50 (LOX MVI): 304 nM; GI50 (MALME-3M): 252 nM; GI50 (SK-MEL-5): 262 nM; GI50 (IGROV1): 217 nM; GI50 (T-47D): 221 nM; GI50 [3]: 372 nM
Cc1ccc([N+](=O)[O-])cc1N=C(SSC(=Nc1cc([N+](=O)[O-])ccc1C)c1ccc(F)cc1)c1ccc(F)cc1 [Compound 21] | 76.3 ± 0.15 | 81.1 ± 0.10 | 32.8 ± 0.52 | 80.6 ± 0.08 | 62.1 ± 0.12 | 13.8 ± 0.60 | 76.6 ± 0.20 | 66.7 ± 0.13 | 19.85 | –
